Measurements taken from patent US20090208620A1, “Alimentary Compositions and Methods For Metabolic Modulation” (VDF FUTURECEUTICALS, INC., priority 2003, published 2009).

What was measured:
activated AMPK = test: Western immunoblot for activated (phospho-Thr172) AMPK in muscle cells; assay type: cell-based, mouse; conditions: cells treated 30 minutes at 37° C
Procedure: The levels of Glut-4, activated AMPK and activated Akt were measured in mouse muscle cells C2C12 (from ATTC) and in primary culture of human skeletal muscle cells (Clonetics, Inc.) using Western immunoblotting. C2C12 cells were plated at 1.5×1-exp5 cells per mL/well (12-well plate) in standard cell culture medium (DMEM supplemented with 10% fetal bovine serum (FBS), 25 mM glucose, 20 mM Hepes, 4 mM glutamine and 2 mM sodium pyruvate. 48 hrs after the plating, medium was changed to differentiation medium (DMEM supplemented with 5 mM of glucose and 0.5% of FBS) for next 3-4 days to stimulate the formation of myotubes. Three hours before the treatment with selected agents, cells were washed with PBS and transferred to PBS supplemented with 5 mM of glucose.
Human skeletal muscle cells (HSKM) were cultured in SKBM-2 mediums provided by Clonetics. 48 hrs after cell plating, medium was changed to SKBM medium to stimulate differentiation of the cells to myotubes. When differentiated, the myotubes were transferred to PBS supplemented with 5 mM glucose for three hrs before the treatment.
Analysis of C2C12 cells for the level of activated AMPK, Akt and the level of GLUT-4 was performed in the same experimental system. The cells were treated for 30 minutes at 37° C. […] Subsequently, 20 μg per sample of sample protein was used for Western analysis using NuPage 10% Bis/Tris gels (Invitrogen). After exposure of membranes to primary and secondary antibodies AMPK, AKT or Glut-4 was detected using ECL-Plus (Amersham) following producer's instruction. Chemilumiscent signals were detected by using ChemiDoc system from Biorad. Intensity of detected signals were analyzed and measured using Quantity One software (Biorad). Alternatively, the level of phosphorylated AMPK was detected using ECL kit from Amersham and short exposure to Kodak films.
Experimental setup: Cell Culture was followed by treatment with selected contemplated compounds, which was followed by cell lysis and western blot analysis for AMPK, Akt, GLUT4, total AMPK, and total Akt. Signals were acquired accordingly.

[1] = Oral availability and serum level of DHZ by ELISA; assay type: in vivo, C57/B1 mice; conditions: 100 microgram/dose, mice; for concentration at 0 minutes / concentration at 15 minutes / concentration at 30 minutes / concentration at 60 minutes / concentration at 120 minutes: C57/B1, mouse, serum
Procedure: C57/B1 mice were treated with 100 microgram/dose of dihydrozeatin (DHZ) for 0, 15, 30, 60 and 120 minutes following oral or i.p. administration. Serum level of DHZ in pg/ml was measured using DHZ Elisa following procedures as enclosed in a commercially available test kit (e.g., dihydrozeatin competitive ELISA test system for plant growth hormone detection, Agdia, Elkhard, Ind.).

concentration at 0 minutes ([1]; ip): 0.3 ng/mL | concentration at 15 minutes ([1]; ip): 1.15 ng/mL | concentration at 30 minutes ([1]; ip): 0.991 ng/mL | concentration at 60 minutes ([1]; ip): 0.746 ng/mL | concentration at 120 minutes ([1]; ip): 0.471 ng/mL | concentration at 0 minutes ([1]; Oral): 0.3 ng/mL | concentration at 15 minutes ([1]; Oral): 0.952 ng/mL | concentration at 30 minutes ([1]; Oral): 1.02 ng/mL | concentration at 60 minutes ([1]; Oral): 0.961 ng/mL | concentration at 120 minutes ([1]; Oral): 0.853 ng/mL | oral bioavailability (in words) [1]: readily bioavailable from the oral route | time over which significant serum concentrations can be maintained [1]: at least 120 minutes
Structure (SMILES): CC(CO)CCNc1ncnc2nc[nH]c12 (stereo not drawn) [Dihydro-Zeatin, dihydrozeatin]
FOLD AMPK ACTIVATION (OVER CONTROL) (activated AMPK; 0.5 microM): 2.25 fold | FOLD AMPK ACTIVATION (OVER CONTROL) (activated AMPK; 5.0 microM): 0.59 fold | FOLD AMPK ACTIVATION (OVER CONTROL) (activated AMPK; 50.0 microM): 0.88 fold
